Patent US7081260B2, “α-Glucosidase inhibitors from a natural source” (Council of Scientific and Industrial Research, priority 2002, dated 2006)
Converted amounts (≈) assume the structure as drawn.

How the values were obtained:
[1] = target: yeast α-glucosidase enzyme; assay: α-glucosidase inhibitory assay by the chromogenic method; format: biochemical; conditions: p-nitrophenyl-α-D-glucopyranoside substrate; for IC50 value: pH 7.00; for α-glucosidase inhibitory activity up to: pH 7.00, maximum inhibition
Protocol: Determination of α-Glucosidase Inhibition Activity of Compounds Isolated From P. longum:
The α-glucosidase inhibitory assay was done by the chromogenic method. In brief 10 μl of test compounds dissolved in DMSO (5 mg/ml and subsequent dilutions) were incubated for 5 min. with 5 μl of yeast α-glucosidase enzyme prepared in 100 mM phosphate buffer (pH 7.00). After 5 minutes of incubation, […] of 5 mM substrate (p-nitrophenyl-α-D-glucopyranoside prepared in the same buffer) were added. The pre-substrate and 5-min post-substrate addition absorbances were recorded at 405 nm spectrophotometrically. The increases in absorbance from pre-substrate addition to post substrate reaction were obtained. Percent inhibition was calculated by (1-O.D test/O.D control)×100 and inhibitory concentration 50% (IC50) was calculated by applying suitable regression analysis.

[2] = in vivo; cited from earlier work
Collosobruchus chinenses = conditions: against Collosobruchus chinenses; cited from earlier work
Toxocara canis = conditions: against Toxocara canis; cited from earlier work
Musca Domestica = conditions: against Musca Domestica; cited from earlier work
[3] = system: p. gossipiella, H. virescens, H. ze; conditions: against p. gossipiella; cited from earlier work
Aedus Eriseratus larvae = conditions: against Aedus Eriseratus larvae; cited from earlier work
8 Mycobacterium stains = conditions: against 8 Mycobacterium stains; cited from earlier work
[4] = system: Leplinotarsa dectmlineata; conditions: against Leplinotarsa dectmlineata; cited from earlier work
[5] = system: Moth fly (Telmatoscopus Albipunctatus); conditions: against Moth fly (Telmatoscopus Albipunctatus); cited from earlier work
Cladosporiumsphaerosperm = conditions: against Cladosporiumsphaerosperm; cited from earlier work

| SMILES | IC50 value [1] [µg/mL] | α-glucosidase inhibitory activity up to [1] | BIOLOGICAL ACTIVITY: insecticidal activity [2] | BIOLOGICAL ACTIVITY: insecticidal (Collosobruchus chinenses) | BIOLOGICAL ACTIVITY: larvicidal (Toxocara canis) | BIOLOGICAL ACTIVITY: insecticidal (Musca Domestica) | BIOLOGICAL ACTIVITY: insect growth inhibitor [3] | BIOLOGICAL ACTIVITY: larvicida activity (Aedus Eriseratus larvae) | BIOLOGICAL ACTIVITY: antituberculotic (8 Mycobacterium stains) | BIOLOGICAL ACTIVITY: ovicidal [4] | BIOLOGICAL ACTIVITY: insecticidal [5] | BIOLOGICAL ACTIVITY: antifungal (Cladosporiumsphaerosperm) |
| --- | --- | --- | --- | --- | --- | --- | --- | --- | --- | --- | --- | --- |
| CC(C)CNC(=O)C=CC=CCCCCCCCCC=Cc1ccc2c(c1)OCO2 [brachystamide-B, 15-(1,3-benzodioxol-5-yl)-N(2-methylpropyl)-2,4,14-pentadecatrienamide] | 33.61 (≈ 81.7 µM) | up to 73.90% |  |  |  |  |  |  |  |  |  |  |
| CC(C)CNC(=O)/C=C/C=C/CCCCCC/C=C/c1ccc2c(c1)OCO2 [guineensine, 13-(1,3-benzodioxol-5-yl)-N(2-methylpropyl)-2,4,12-tri decatrienamide] | 20.15 (≈ 52.5 µM) | up to 61.71% | Insecticidal activity | Insectcidal against | Larvicidal against Toxocara |  |  |  |  |  |  |  |
| CCCCCC=CC=CC(=O)NCC(C)C [pellitorine, N-(2-methylpropyl)-2,4-decadienamide] | 34.43 (≈ 154 µM) | up to 86.03% |  | Insecticidal against |  | Insecticidal against Musca | Insectgrowth inhibitor against | Larvicida activity against | Antituberculotic against 8 | Ovicidal against Leplinotarsa | Insecticidal activities against | Antifungal against |
| CCCCCCCCCCC=Cc1ccc2c(c1)OCO2 [pipataline, 5-(1-dodecenyl)-1,3-benzodioxol] | 26.52 (≈ 91.9 µM) | up to 77.45% |  |  |  |  |  |  |  |  |  |  |
| c1cc2c(cc1[C@H]1OC[C@H]3[C@@H]1CO[C@@H]3c1ccc3c(c1)OCO3)OCO2 [sesamin, 5,5-(tetrahydro-1H,3H-furo(3,4-e)furan-1,4-diyl)bis-1,3-benzodioxol] | 36.35 (≈ 103 µM) | up to 76.18% |  |  |  |  |  |  |  |  |  |  |
